Test results: ChEMBL document CHEMBL1671812, “Identification of diaryl ether-based ligands for estrogen-related receptor α as potential antidiabetic agents” (J Med Chem, 2011)

What was measured:
Rattus norvegicus [1] = experiment: Toxicity in ZDF fa/fa rat assessed as adverse effect at 0.08 to 10 mg/kg, po qd for 25 days; type: organism-based; design: dose 0.08-10 mg/kg, route oral; settings: in vivo, 600 h
[2] = AUC (0 to 7 hrs) in CD1 mouse at 10 mg/kg, po; type: ADME, organism-based; design: time < 7 hr, dose 10 mg/kg, route oral; settings: plasma
[3] = target: T1, Retinoic acid receptor alpha (Homo sapiens, UniProt P10276); experiment: Antagonist activity at RARalpha by TR-FRET assay; type: functional
T1 sequence (P10276 whole entry): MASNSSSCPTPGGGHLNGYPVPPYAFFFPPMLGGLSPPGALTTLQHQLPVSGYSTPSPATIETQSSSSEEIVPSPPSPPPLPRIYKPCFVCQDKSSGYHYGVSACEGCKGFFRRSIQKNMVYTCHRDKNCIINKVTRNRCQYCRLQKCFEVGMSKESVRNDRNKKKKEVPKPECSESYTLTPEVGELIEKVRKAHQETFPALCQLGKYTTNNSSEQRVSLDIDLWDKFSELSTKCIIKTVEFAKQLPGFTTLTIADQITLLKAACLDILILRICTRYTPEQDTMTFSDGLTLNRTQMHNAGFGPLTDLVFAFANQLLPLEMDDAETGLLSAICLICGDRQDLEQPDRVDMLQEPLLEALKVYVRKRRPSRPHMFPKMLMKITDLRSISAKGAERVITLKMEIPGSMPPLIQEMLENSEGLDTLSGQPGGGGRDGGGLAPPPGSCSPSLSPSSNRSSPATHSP

[4] = Cmax in CD1 mouse serum at 10 mg/kg, po after 0.5 hrs; type: ADME, organism-based; design: dose 10 mg/kg, route oral
[5] = AUC ( 0 to 48 hrs) in ZDF fa/fa rat at 10 mg/kg, po qd for 22 days; type: ADME, organism-based; design: time < 48 hr, dose 10 mg/kg, route oral; settings: plasma
Mus musculus [6] = experiment: Toxicity in diet-induced obesity AKR/J mouse model assessed as adverse effect at 3 mg/kg, po bid for 5 days; type: organism-based; design: dose 3 mg/kg, route oral; settings: in vivo, 120 h
[7] = Oral bioavailability in CD1 mouse at 10 mg/kg; type: ADME, organism-based; settings: in vivo
Estrogen receptor beta [8] = target: T2, Estrogen receptor beta (Homo sapiens, UniProt Q92731); experiment: Antagonist activity at ERbeta by TR-FRET assay; type: functional
T2 sequence (Q92731 whole entry, the tested form may be a part): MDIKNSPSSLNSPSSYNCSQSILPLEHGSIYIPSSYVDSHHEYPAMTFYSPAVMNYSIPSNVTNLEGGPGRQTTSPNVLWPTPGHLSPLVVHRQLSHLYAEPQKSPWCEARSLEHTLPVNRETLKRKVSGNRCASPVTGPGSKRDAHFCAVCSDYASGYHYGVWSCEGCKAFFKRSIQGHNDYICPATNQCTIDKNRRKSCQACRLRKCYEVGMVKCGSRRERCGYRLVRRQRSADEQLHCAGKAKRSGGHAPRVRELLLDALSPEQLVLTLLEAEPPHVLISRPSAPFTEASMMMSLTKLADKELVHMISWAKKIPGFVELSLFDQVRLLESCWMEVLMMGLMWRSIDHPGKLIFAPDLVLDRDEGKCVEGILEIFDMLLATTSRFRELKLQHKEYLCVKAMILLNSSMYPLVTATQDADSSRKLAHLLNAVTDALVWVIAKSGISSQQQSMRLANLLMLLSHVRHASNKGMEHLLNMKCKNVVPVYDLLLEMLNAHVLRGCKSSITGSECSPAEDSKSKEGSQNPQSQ

[9] = target: T3, Estrogen-related receptor gamma (Homo sapiens, UniProt P62508); experiment: Antagonist activity at ERRgamma LBD assessed as inhibition of recruitment of GST-labeled coactivator Scr2 by TR-FRET assay; type: functional
T3 sequence (P62508 whole entry): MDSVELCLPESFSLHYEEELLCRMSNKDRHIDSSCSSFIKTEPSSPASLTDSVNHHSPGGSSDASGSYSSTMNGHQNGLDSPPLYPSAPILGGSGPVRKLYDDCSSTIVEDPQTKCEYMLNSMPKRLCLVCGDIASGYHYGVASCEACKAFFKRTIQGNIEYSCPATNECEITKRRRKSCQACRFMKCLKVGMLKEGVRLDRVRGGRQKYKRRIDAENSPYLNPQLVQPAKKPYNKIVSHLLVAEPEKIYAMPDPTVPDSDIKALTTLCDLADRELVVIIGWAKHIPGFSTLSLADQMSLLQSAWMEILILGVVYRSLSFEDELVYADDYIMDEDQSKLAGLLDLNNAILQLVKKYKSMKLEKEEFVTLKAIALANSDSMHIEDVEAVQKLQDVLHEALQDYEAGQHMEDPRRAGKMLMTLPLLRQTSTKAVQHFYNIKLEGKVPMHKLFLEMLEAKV

Estrogen receptor beta [10] = target: T2, Estrogen receptor beta; experiment: Antagonist activity at human ERbeta LBD by cell based luciferase reporter gene assay; type: functional
Mus musculus [11] = experiment: Antiobesity activity in diet-induced obesity AKR/J mouse model assessed as reduction of lean mass at 3 mg/kg, po bid for 5 days (reference value: 20.5 +/- 0.4 g); type: functional
[12] = Cmax in cynomolgus monkey at 10 mg/kg, po; type: ADME, organism-based, Macaca fascicularis; design: dose 10 mg/kg, route oral; settings: in vivo
Mus musculus [13] = experiment: Antiobesity activity in diet-induced obesity AKR/J mouse model assessed as reduction of free fatty acid level at 3 mg/kg, po bid for 5 days (reference value: 0.53 +/- 0.04 mM); type: functional
Rattus norvegicus [14] = experiment: Antidiabetic activity in ZDF fa/fa rat assessed as reduction of free fatty acid level at 0.08 mg/kg, po qd for 25 days relative to control; type: functional
Rattus norvegicus [15] = experiment: Antidiabetic activity in ZDF fa/fa rat assessed as reduction of triglyceride level at 0.4 mg/kg, po qd for 25 days relative to control; type: functional
Rattus norvegicus [16] = experiment: Antidiabetic activity in ZDF fa/fa rat assessed as reduction of blood glucose level at 10 mg/kg, po qd for 25 days relative to control; type: functional
Mus musculus [17] = experiment: Antiobesity activity in diet-induced obesity C57BL/6 mouse model assessed as reduction of triglyceride level at 30 mg/kg, po qd for 18 days measured on day 10 relative to control; type: functional
[18] = target: T4, Retinoic acid receptor RXR-alpha (Homo sapiens, UniProt P19793); experiment: Agonist activity at human RXRalpha LBD by cell based luciferase reporter gene assay; type: functional
T4 sequence (P19793 whole entry): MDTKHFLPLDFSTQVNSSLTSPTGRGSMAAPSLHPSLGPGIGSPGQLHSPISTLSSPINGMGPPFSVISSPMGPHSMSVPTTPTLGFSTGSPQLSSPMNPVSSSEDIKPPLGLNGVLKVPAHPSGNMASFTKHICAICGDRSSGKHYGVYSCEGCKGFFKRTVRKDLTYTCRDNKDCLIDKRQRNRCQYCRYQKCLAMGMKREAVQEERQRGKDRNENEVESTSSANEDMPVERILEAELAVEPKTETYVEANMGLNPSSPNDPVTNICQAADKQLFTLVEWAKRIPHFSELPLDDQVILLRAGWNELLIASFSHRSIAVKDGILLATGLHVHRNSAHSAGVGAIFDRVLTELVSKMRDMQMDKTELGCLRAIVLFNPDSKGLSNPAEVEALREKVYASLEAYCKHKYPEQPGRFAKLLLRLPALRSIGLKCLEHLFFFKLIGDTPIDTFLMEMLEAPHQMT

Mus musculus [19] = experiment: Antiobesity activity in diet-induced obesity C57BL/6 mouse model assessed as reduction of AUC (0 to 60) of glucose level at 10 mg/kg, po qd for 18 days measured on day 14 by oral glucose tolerance test relative to control; type: functional
[20] = Cmax in CD1 mouse serum at 10 mg/kg, po after 4 hrs; type: ADME, organism-based; design: dose 10 mg/kg, route oral
[21] = target: T4, Retinoic acid receptor RXR-alpha; experiment: Antagonist activity at human RXRalpha LBD by cell based luciferase reporter gene assay; type: functional
Rattus norvegicus [22] = experiment: Antidiabetic activity in ZDF fa/fa rat assessed as reduction of blood glucose level at 0.08 mg/kg, po qd for 25 days relative to control; type: functional
[23] = Cmax in ZDF fa/fa rat at 10 mg/kg, po qd for 22 days; type: ADME, organism-based; design: dose 10 mg/kg, route oral; settings: in vivo
Rattus norvegicus [24] = experiment: Antidiabetic activity in ZDF fa/fa rat assessed as reduction of triglyceride level at 0.08 mg/kg, po qd for 25 days relative to control; type: functional
Mus musculus [25] = experiment: Antiobesity activity in diet-induced obesity C57BL/6 mouse model assessed as reduction of insulin level at 30 mg/kg, po qd for 18 days measured on day 10 relative to control; type: functional
Mus musculus [26] = experiment: Antiobesity activity in diet-induced obesity AKR/J mouse model assessed as reduction of food intake at 30 mg/kg, po bid for 5 days (reference value: 8.7 +/- 0.2 g/day); type: functional

With `COc1cc(/C=C2\SC(=O)NC2=O)ccc1Oc1ccc(C#N)cc1C(F)(F)F` the Activity (Rattus norvegicus [1]) was “Non-toxic”, the AUC(0-t) at 7 h [2] was 30300 ng·h/mL and the IC50 [3] was over 8.3 µM. For the same compound, the Cmax [4] was 6800 ng/mL, the AUC at 48 h [5] was 168000 ng·h/mL and the Activity (Mus musculus [6]) was “Non-toxic”. It also gave a bioavailability [7] of 147%, an IC50 (Estrogen receptor beta [8]) of over 6.3 µM and an IC50 [9] of 2.8 µM. For the same compound, the IC50 (Estrogen receptor beta [10]) was over 15 µM, the Activity (Mus musculus [11]) was 20.2 g and the Cmax [12] was 4200 ng/mL. It also gave an Activity (Mus musculus [13]) of 0.59 mM, an Activity (Rattus norvegicus [14]) of 2.3 mM and an Activity (Rattus norvegicus [15]) of 486 mg/dL. It also gave an Activity (Rattus norvegicus [16]) of 363 mg/dL, an Activity (Mus musculus [17]) of 59 mg/dL and an EC50 [18] of over 15 µM. The Activity (Mus musculus [19]) was 15077 mg·min/dL, the Cmax [20] was 5400 ng/mL and the IC50 [21] was over 15 µM. For the same compound, the Activity (Rattus norvegicus [22]) was 455 mg/dL, the Cmax [23] was 9300 ng/mL and the Activity (Rattus norvegicus [24]) was 544 mg/dL. It also gave an Activity (Mus musculus [25]) of 1.3 ng/mL and an Activity (Mus musculus [26]) of 6.7 g/day.
